Experimental data taken from patent US20230104477A1, “USE OF DEHYDROASCORBIC ACID AGAINST NEMATODE INFECTION IN PLANTS” (Universiteit Gent, priority 2019, published 2023).

Columns and labels:
rice seedlings = experiment: Evaluation of seedling growth after drenching rice seedlings; format: in vivo, Oryza sativa cv. Nipponbare; settings: 3-days old rice seedlings drenched with 1 mL (AA 20 mM, DHA 20 mM, AO 20 U/ml); 5 days after drenching; vs water control
Description: (§1) Rice—Seeds of wild-type rice Oryza sativa cv. Nipponbare were obtained from USDA (GSOR-100). Seeds were germinated on wet filter paper for 4-5 days at 30° C. and seedlings were then transferred to SAP-substrate (Sand mixed with Absorbent Polymer AquaPerla®, DCM, Belgium) and further grown at 28° C., under a light regime of (day/night) 12/12. Hoagland solution was given as a source of nutrients 3 times a week.
(§2) Reduced Ascorbic acid (AA, 20 mM), dehydroascorbic acid (DHA, 20 mM), ascorbate oxidase (AO, 20 U/ml), methyl jasmonate (MeJA, 100 μM), aminooxyacetic acid (AoA, 12.5 mM), diethyldithiocarbamic acid (DIECA, 100 μM) and ethephon (100 μM) were purchased from Sigma and dissolved in water (except MeJA that was first dissolved in a drop of ETOH) to attain the indicated concentration.
3-days old rice seedlings were drenched with 1 mL of AA (20 mM), AO (20 U/mL), DHA (20 mM) or water (H2O) as a negative control. Rice root length and dry root weight as well as the number of embryonic crown roots (ECR) were measured 5 days after drenching.

[1] = system: root-knot nematode M. graminicola; experiment: Susceptibility assay on rice plants, foliar spray; format: in vivo, Meloidogyne graminicola; settings: foliar spray 24 h prior to inoculation (AA 20 mM, DHA 20 mM, AO 20 U/ml); 12 dai; vs control
Description: (§3) M. graminicola originally isolated in the Philippines (Batangas) was cultured on susceptible rice plants. Second stage juveniles (J2s) were extracted using a sieve/tray extraction method and inoculation was done as described in Nahar et al., (2011). For susceptibility assays, at least two independent experiments were carried out, each time including eight plants per treatment. Twelve days after inoculation (dai), roots were stained using acid fuchsine (Nahar et al., 2011) to count galls and number of nematodes in the roots.
as §2
(§4) For foliar application, all chemicals were dissolved in water and 0.02% (v/v) of Tween20 as a surfactant was added prior to spraying on aerial portions of the rice plants. Control plants were sprayed with distilled water containing 0.02% Tween20. Eight plants per treatment were sprayed until run-off with 6.5 mL of solution (at 24 h prior to nematode inoculation, in cases where infected plants were used). The substrate was covered to avoid direct contact with the roots and/or nematodes.

[2] = Ascorbate measurements in shoots and roots of foliar sprayed rice; format: in vivo, Oryza sativa cv. Nipponbare; settings: 24 h after foliar application; vs control plants
Description: as §4
[…] In each assay, 100 mg of crushed material was used per sample, and at least 4 biological replicates were analyzed per treatment. Reduced and oxidized AA were measured according to the method described in Ueda et al., 2013. Absorbance was monitored using a microplate reader (TECAN—Infinite200pro).

[3] = system: root-knot nematode Meloidogyne graminicola; experiment: Susceptibility assay on rice plants, soil drench; format: in vivo; settings: soil drench 24 h prior to inoculation (AA 20 mM, DHA 20 mM, AO 20 U/mL); twelve days after inoculation; vs control
Description: as §3, §2
For soil application, 6.5 mL of each solution was drenched on the substrate, 24 h prior to nematode inoculation.

Heterodera schachtii = experiment: Sugar beet tolerance to beet cyst nematode infection after foliar spray; format: in vivo; settings: three-weeks old sugar beet, foliar spray (AA 20 mM, AO 20 U/mL, DHA 20 mM), 250 H. schachtii per plant, 4 DAS (3 dai); for shoot height: DHA effect not statistically significant
Description: (§5) Sugar beet—seeds of cv. Amarok were germinated on moist tissue for 4-5 days at 25° C. For longer experiments seedlings were transplanted to polyvinyl-chloride (PVC) tubes containing fine soil particles. All experiments were conducted in a plant growth room at 25° C., with a 16/8 h day/night regime. The plants were fertilized by supplying Hoagland solution as a source of nutrients 3 times a week.
BNC cysts were obtained from Iran and were maintained on sugar beet (cv. Amarok) plants. Cysts were obtained from stock cultures, by washing the infected soil and letting the cysts to float in water. Full cysts with eggs were hand-picked and allowed to dry before setting up for hatching. For second-stage juveniles (J2) to hatch, cysts were placed in 3 mM of […] and transferred to an incubator/shaker at a temperature of 25.5° C. at 70 rpm for 4 days (Kammerhofer et al., 2015). J2 were re-suspended in water and counted under a stereomicroscope. Around 250-300 J2 nematodes were inoculated per plant. One day before and after inoculation, plants were not supplied with any nutrients or water. To investigate the plant tolerance to BCN infection root length, shoot height, fresh root weight as well as the number of cysts were measured at different time points after spraying and/or inoculation. For all experiments, 8 individual plants were used per treatment.
as §2, §4

M. graminicola = experiment: Infection experiment with JA/ET mutant and biosynthesis inhibitors, foliar spray; format: in vivo, Meloidogyne graminicola; settings: inhibitor alone sprayed on wild-type (DIECA 100 μM, AoA 12.5 mM) vs wild-type/control plants; 12 days after inoculation
Description: as §3, §2, §4

root parasitic nematodes = settings: root application; cited from earlier work
root defence pathways = settings: foliar application; cited from earlier work
[4] = system: root-knot nematode Meloidogyne graminicola; experiment: Root growth in rice after foliar spray, nematode-infected conditions (tolerance); format: in vivo; settings: 14-days old rice, foliar spray AO 20 U/mL, 250 nematodes per plant, time point not stated
Description: as §1, §3, §2, §4

sugar beet plants = experiment: Root and shoot growth in uninfected sugar beet plants after foliar spray; format: in vivo, Beta vulgaris cv. Amarok; settings: two-week old sugar beet, seven days later
Description: as §5, §2, §4

[5] = foliar spray, effect not statistically significant

O=C1O[C@H]([C@@H](O)CO)C(O)=C1O [AA, ascorbic acid]
number of embryonic crown roots (ECR) (rice seedlings): significantly fewer ECR
root length (rice seedlings): slightly shorter roots
number of galls [1]: no significant differences
number of nematodes [1]: no significant differences
amount of reduced AA in roots [2]: no changes
amount of reduced AA in shoots [2]: significantly increased
number of galls [3]: significantly lower number of galls
number of nematodes [3]: lower number of nematodes
root length (Heterodera schachtii): None of the other treatments (AA or AO) had significant effects
root weight (Heterodera schachtii): None of the other treatments (AA or AO) had significant effects
shoot weight (Heterodera schachtii): None of the other treatments (AA or AO) had significant effects
shoot height (Heterodera schachtii): None of the other treatments (AA or AO) had significant effects

NOCC(=O)O [AoA, aminooxyacetic acid, reference compound]
number of galls (M. graminicola): significantly higher number of galls

CC(N)CC(=O)O (stereo not drawn) [BABA, β-aminobutyric acid]
rice plant defence, tolerance or resistance against root parasitic nematodes (root parasitic nematodes): enhances the rice plant defence system

CCN(CC)C(=S)S [DIECA, diethyldithiocarbamic acid, reference compound]
number of galls (M. graminicola): significantly increased number of galls

CC/C=C\CC1C(=O)CCC1CC(=O)OC (stereo not drawn) [MeJA, methyl jasmonate]
activation of root defence pathways (root defence pathways): can activate root defence pathways with varying efficacy

O=P(O)(O)CCCl [ethephon]
activation of root defence pathways (root defence pathways): can activate root defence pathways with varying efficacy

Cc1ncc(C[n+]2csc(CCO)c2C)c(N)n1 [thiamine]
rice plant defence, tolerance or resistance against root parasitic nematodes (root parasitic nematodes): enhances the rice plant defence system

silicon
rice plant defence, tolerance or resistance against root parasitic nematodes (root parasitic nematodes): enhances the rice plant defence system

B1: AO: ascorbate oxidase, purchased from Sigma, used at 20 U/ml (protein, UniProt P37064 1-552, looked up)
L-ascorbate oxidase: SQIRHYKWEVEYMFWAPNCNENIVMGINGQFPGPTIRANAGDSVVVELTNKLHTEGVVIHWHGILQRGTPWADGTASISQCAINPGETFFYNFTVDNPGTFFYHGHLGMQRSAGLYGSLIVDPPQGKKEPFHYDGEINLLLSDWWHQSIHKQEVGLSSKPIRWIGEPQTILLNGRGQFDCSIAAKYDSNLEPCKLKGSESCAPYIFHVSPKKTYRIRIASTTALAALNFAIGNHQLLVVEADGNYVQPFYTSDIDIYSGESYSVLITTDQNPSENYWVSVGTRARHPNTPPGLTLLNYLPNSVSKLPTSPPPQTPAWDDFDRSKNFTYRITAAMGSPKPPVKFNRRIFLLNTQNVINGYVKWAINDVSLALPPTPYLGAMKYNLLHAFDQNPPPEVFPEDYDIDTPPTNEKTRIGNGVYQFKIGEVVDVILQNANMMKENLSETHPWHLHGHDFWVLGYGDGKFSAEEESSLNLKNPPLRNTVVIFPYGWTAIRFVADNPGVWAFHCHIEPHLHMGMGVVFAEGVEKVGRIPTKALACGGTAKSLINNPKNP
dry root weight (rice seedlings): some positive effects
number of embryonic crown roots (ECR) (rice seedlings): some positive effects
root length (rice seedlings): no root length effects
root length [4]: slightly increased root length
number of galls [1]: significantly lower number of galls
number of nematodes [1]: lower number of nematodes
DHA level in roots [2]: accumulating
total levels of reduced and oxidized ascorbate in shoots [2]: slightly decreased
number of galls [3]: no significant difference
number of nematodes [3]: no significant difference
root length (sugar beet plants; foliar spray (DHA 20 mM, AO 20 U/mL), vs water control): significantly longer roots
fresh root weight (sugar beet plants; [5]): positively affected
shoot length (sugar beet plants; [5]): positively affected
root length (Heterodera schachtii): None of the other treatments (AA or AO) had significant effects
root weight (Heterodera schachtii): None of the other treatments (AA or AO) had significant effects
shoot weight (Heterodera schachtii): None of the other treatments (AA or AO) had significant effects
shoot height (Heterodera schachtii): None of the other treatments (AA or AO) had significant effects
